In general, melting point refers to the temperature of the solid-liquid transition.

Molecules are shown by their SMILES.

Consider 24 compounds from patent US20070259907A1, “ARYL AND ARYLALKYLENYL SUBSTITUTED THIAZOLOQUINOLINES AND THIAZOLONAPHTHYRIDINES” (priority 2004, published 2007).

For the compound `CCCc1nc2c(N)nc3ccc(-c4ccc(F)cc4CN)cc3c2s1` [Example 136, 8-[2-(Aminomethyl)-4-fluorophenyl]-2-propylthiazolo[4,5-c]quinolin-4-amine], the melting point is 198 to 201 °C.
Then `CCCc1nc2c(N)nc3ccc(-c4cccc(NC(C)=O)c4)cc3c2s1` [Example 135, N-[3-(4-Amino-2-propylthiazolo[4,5-c]quinolin-8-yl)phenyl]acetamide], with 242 to 245 °C.
Then `CCCc1nc2c(N)nc3ccc(-c4ccc(CO)cc4)cc3c2s1` [Example 141, [4-(4-Amino-2-propylthiazolo[4,5-c]quinolin-8-yl)phenyl]methanol], with 212 to 214 °C.
Then `CCCc1nc2c(N)nc3cc(-c4cccc(NC(C)=O)c4)ccc3c2s1` [Example 49, N-[3-(4-Amino-2-propylthiazolo[4,5-c]quinolin-7-yl)phenyl]acetamide], with 173 to 176 °C.
In the case of `CCCc1nc2c(N)nc3cc(-c4ccc(NC(C)=O)cc4)ccc3c2s1` [Example 44, N-[4-(4-Amino-2-propylthiazolo[4,5-c]quinolin-7-yl)phenyl]acetamide], the melting point is 252 to 255 °C.
In the case of `CCCc1nc2c(N)nc3ccc(-c4ccc(CN)cc4)cc3c2s1` [Example 143, 8-[4-(Aminomethyl)phenyl]-2-propylthiazolo[4,5-c]quinolin-4-amine] it was 225 to 226 °C; in that of `CCCc1nc2c(N)nc3cc(-c4cccc(CN)c4)ccc3c2s1` [Example 50, 7-(3-Aminomethylphenyl)-2-propylthiazolo[4,5-c]quinolin-4-amine], 168 to 171 °C.
Consider `CCCc1nc2c(N)nc3cc(-c4cccc(S(C)(=O)=O)c4)ccc3c2s1` [Example 48, 7-[3-(Methylsulfonyl)phenyl]-2-propylthiazolo[4,5-c]quinolin-4-amine], for which the melting point fell in the range of 242 to 245 °C.
Then `CCCc1nc2c(N)nc3ccc(-c4ccc(NC(C)=O)cc4)cc3c2s1` [Example 137, N-[4-(4-Amino-2-propylthiazolo[4,5-c]quinolin-8-yl)phenyl]acetamide], with 251 to 254 °C; and `CCCc1nc2c(N)nc3cc(-c4cccc(C(=O)N5CCCC5)c4)ccc3c2s1` [Example 43, 2-Propyl-7-[3-(pyrrolidin-1-ylcarbonyl)phenyl]thiazolo[4,5-c]quinolin-4-amine], with 177 to 180 °C.
Then `CCCc1nc2c(N)nc3cc(-c4ccc(F)cc4CN)ccc3c2s1` [Example 51, 7-[2-(Aminomethyl)-4-fluorophenyl)-2-propylthiazolo[4,5-c]quinolin-4-amine], with 181 to 184 °C; and `CCCc1nc2c(N)nc3cc(-c4cccc(C(=O)N(CC)CC)c4)ccc3c2s1` [Example 42, 3-(4-Amino-2-propylthiazolo[4,5-c]quinolin-7-yl)-N,N-diethylbenzamide], with 169 to 172 °C; and `CCCc1nc2c(N)nc3cc(-c4cccc(NS(C)(=O)=O)c4)ccc3c2s1` [Example 2, N-[3-(4-Amino-2-propylthiazolo[4,5-c]quinolin-7-yl)phenyl]methanesulfonamide], with 228 to 231 °C.
Then `CCCc1nc2c(N)nc3cc(-c4cccc(CO)c4)ccc3c2s1` [Example 1, [3-(4-Amino-2-propylthiazolo[4,5-c]quinolin-7-yl)phenyl]methanol], with 186 to 188 °C.
As for `CCCc1nc2c(N)nc3ccc(-c4cccc(S(C)(=O)=O)c4)cc3c2s1` [Example 134, 8-[3-(Methylsulfonyl)phenyl]-2-propylthiazolo[4,5-c]quinolin-4-amine], the melting point fell in the range of 252 to 255 °C.
`CCCc1nc2c(N)nc3cc(-c4cccc(C(=O)N5CCOCC5)c4)ccc3c2s1` [Example 4, 7-[3-(Morpholin-4-ylcarbonyl)phenyl]-2-propylthiazolo[4,5-c]quinolin-4-amine] displayed a melting point of 190 to 193 °C.
In the case of `CCCc1nc2c(N)nc3cc(-c4ccccc4CO)ccc3c2s1` [Example 3, [2-(4-Amino-2-propylthiazolo[4,5-c]quinolin-7-yl)phenyl]methanol] it was 216 to 219 °C.
Then `CCCc1nc2c(N)nc3ccc(-c4ccccc4CO)cc3c2s1` [Example 139, [2-(4-Amino-2-propylthiazolo[4,5-c]quinolin-8-yl)phenyl]methanol], with 194 to 196 °C; and `CCCc1nc2c(N)nc3ccc(-c4cccc(CN)c4)cc3c2s1` [Example 142, 8-[3-(Aminomethyl)phenyl]-2-propylthiazolo[4,5-c]quinolin-4-amine], with 189 to 191 °C.
Then `CCCc1nc2c(N)nc3cc(-c4ccccc4C(N)=O)ccc3c2s1` [Example 47, 2-(4-Amino-2-propylthiazolo[4,5-c]quinolin-7-yl)benzamide], with 274 to 276 °C.
For `CCCc1nc2c(N)nc3ccc(-c4cccc(CO)c4)cc3c2s1` [Example 140, [3-(4-Amino-2-propylthiazolo[4,5-c]quinolin-8-yl)phenyl]methanol], the melting point lay within 176 to 177 °C.
In the case of `CCCc1nc2c(N)nc3cc(-c4ccccc4NC(C)=O)ccc3c2s1` [Example 46, N-[2-(4-Amino-2-propylthiazolo[4,5-c]quinolin-7-yl)phenyl]acetamide] it was 206 to 209 °C; in that of `CCCc1nc2c(N)nc3cc(-c4cccc(C(=O)NC5CC5)c4)ccc3c2s1` [Example 45, 3-(4-Amino-2-propylthiazolo[4,5-c]quinolin-7-yl)-N-cyclopropylbenzamide], 251 to 254 °C.
In the case of `CCCc1nc2c(N)nc3ccc(-c4cccc(NS(C)(=O)=O)c4)cc3c2s1` [Example 138, N-[3-(4-Amino-2-propylthiazolo[4,5-c]quinolin-8-yl)phenyl]methanesulfonamide] it was 244 to 246 °C.
